# Experiments:
# rice seedlings = experiment: IAA sensitivity test on rice seedlings; type: in vivo; conditions: 4 days
# Description: Taking rice and lettuce for example, IAA sensitivity of the microbial preparation is tested in steps of: disinfecting and germinating rice seedlings; putting the rice seedlings in a sterilized Petri dish in which a filter paper is disposed; […]; moving the sterilized Petri dish into a plant growth box for 4 days; measuring an average height of buds of the rice seedlings and an average height of roots of the rice seedlings;
# lettuce = experiment: IAA sensitivity test on lettuce; type: in vivo
# Description: disinfecting seeds of the lettuce with 5% sodium hypochlorite and putting the seeds of the lettuce in another sterilized Petri dish in which a filter paper is disposed; adding 3 mL of 0.03 μM, 3 μM, 30 μM, and 300 μM of IAA aqueous solutions respectively; moving another sterilized Petri dish into another plant growth box for 3 days; and measuring a germination rate and a height of each lettuce and a length of a root of each lettuce.
compound,measurement,setting,value
O=C(O)Cc1c[nH]c2ccccc12 [IAA],growth of the roots of the rice seedlings,"rice seedlings; IAA 0.03 μM to 30 μM, FIG. 1",does not promote a growth of the roots
same,growth of the roots of the rice seedlings,rice seedlings; IAA 300 μM,limited
same,height of lettuce sprouts,"lettuce; IAA 0.03 μM, 3 days (no IAA: 5.3 mm)",3.5 mm
same,length of lettuce roots,"lettuce; IAA 0.03 μM, 3 days (no IAA: 14.8 mm)",8.8 mm
same,germination rate of the seeds of the lettuce,"lettuce; IAA 300 μM, 3 days (no IAA: 78%)",13%

# Reference: patent US20210403858A1, “Bacillus strain and microbial preparation of bacillus and method of using microbial preparation” (ROLLING GREENS CO., LTD., priority 2020, published 2021)
